Results from paper PMC2633172 (The FASEB Journal, 2009).
Bridge positions count the residues as written; N and C are the ends. Ends that are not written are not given here. * marks the point of attachment. Biotin = O=C1N[C@H]2[C@H](CS[C@H]2CCCCC(=O)*)N1

Key:
[1] = system: γ-IFN stimulated U937 cells; assay: Inhibition of superoxide burst triggered by bead-peptide 33 complexes; format: cell-based, human; conditions: soluble peptide; submaximal concentration of bead-peptide 33 complexes
[2] = system: γ-IFN stimulated U937 cells; assay: Phagocytosis of fluorescent bead complexes by flow cytometry; format: cell-based, human; conditions: FITC-labeled bead complexes
[3] = molecular target: Human FcγRI extracellular domain (human, UniProt P12314 16-292); assay: AlphaScreen or HTRF
Sequence of Human FcγRI extracellular domain (P12314 16-292): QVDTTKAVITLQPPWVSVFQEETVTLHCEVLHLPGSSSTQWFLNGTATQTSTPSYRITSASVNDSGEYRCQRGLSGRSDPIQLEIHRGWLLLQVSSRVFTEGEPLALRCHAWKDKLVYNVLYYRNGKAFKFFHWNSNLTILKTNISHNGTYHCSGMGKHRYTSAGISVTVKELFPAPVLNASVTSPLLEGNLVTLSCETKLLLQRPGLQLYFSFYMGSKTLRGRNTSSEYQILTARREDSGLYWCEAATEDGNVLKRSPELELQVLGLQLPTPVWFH

Molecule: AQTDTSLMLPLLGSDEE [peptide 22 S4S13]
- ability to prevent receptor-mediated functions triggered by multimeric peptide 33 [1]: only weakly able or unable

Molecule: TDT C LMLPLLLG C DEE (disulfide) [peptide 22]
- internalized fluorescence relative to bead-IgG1 complexes ([2]; 2 h at 37°C, trypan blue quench, 10,000 cells): ≤ 2 fold
- bead-peptide signal intensity in the presence of IgG1 ([2]; with IgG1 (67 μM)): reduced to background

Molecule: H-AQKDPCTRWAMLLGCDGEK(Biotin) (disulfide 6-15 (inferred)) [cyclic peptide 30]
- binding result [3]: binds

Molecule: H-AQVNSCLLLPNLLGCGDDK(Biotin) (disulfide 6-15 (inferred)) [cyclic peptide 33]
- binding result [3]: binds
